Measured values reported in US3989837A, “Pharmaceutical compositions” (Chinoin Gyogyszer-es Vegyeszeti Termekek Gyara RT, priority 1972, dated 1976).
Where two headings read alike, the source gives them in different places.

Assays:
[1] = Toxicity on mice after oral administration, single dosage (Table 1'); assay type: in vivo; conditions: mouse, in vivo, po, male mice, p.o., 168 hours
Experimental: (§1) The tests were carried out on male mice weighing 25 to 30 g., not starved previously. The compounds were administered in a dosage of 0.2 ml. of suspension per 10 g. body weight. The individual dosages indicated in Table 1' were administered to 10 mice each. The given amount of active agent was added in a single dosage, and the animals were dept under observation for 7 days (= 168 hours). The number of deceased animals was recorded daily.
(§2) The LD50 values were calculated according to the Litchfied-Wilcoxon method, by also taking into account the number of animals perished within 168 hours from the administration.

mice = test: as above; assay type: in vivo; conditions: for Perished animals/treated animals: male mice
Experimental: as §1, §2

kaoline oedema = test: Rat paw oedema, kaoline (Table 4'); assay type: in vivo; conditions: for Effect % (average), inhibition of kaoline oedema / Effect %, inhibition of kaoline oedema: female rats; for Effect % (average), inhibition of kaoline oedema: average of repeated tests
Experimental: (§3) Inflammatory plantar oedema was provided by the subplantar injection of 0.1 ml. of 5% kaoline or 0.5% carrageenine on female rats each weighing 110 to 130 g., starved for 24 hours. The dorsoplantar diameter of the test animals was measured with a double-armed instrument prior to the administration of the phlogistic (basic value) and at regular intervals (at 2, 3.5 and 5 hours for kaoline and at 1.5, 3 and 4.5 hours for carrageenine) after the administration of the phlogistic. […] The treatment was always carried out 1 hour before the administration of the phlogistic. The animals belonging to the control group received suspending agent only. In order to ensure a uniform hydration grade, 1 ml. of tap water was administered through a stomach tube to the animals simultaneously with the administration of the active agent. During the test period the animals were allowed to consume water ad libitum.
(§4) The effect was calculated from the difference of the increase in paw diameter observed in the treated and control groups. The daga are given as percentage efficiacy.
(§5) The significance level was examined by Student's t test. The significance levels are marked by asterisks; the values of the repeated tests are given separately.

carrageenine oedema = test: Rat paw oedema, carrageenine (Table 5'); assay type: in vivo; conditions: for Effect %, inhibition of carrageenine oedema: female rats
Experimental: as §3, §4, §5

cotton granuloma = test: Cotton granuloma, comparison with Indomethacine (Table 6); assay type: in vivo, rat; conditions: for Effect %, cotton granuloma: male rats, 7 days
Experimental: Two cotton beads, each weighing 23 to 27 mg., were implanted under the dorsal skin of the animals in aether narcosis, under semisterile conditions, along both sides of the vertebral column. The compound under examination was administered twice a day for 7 days in oral dosages of 0.2 ml./100 g. body weight, in a suspension formed with 1% methyl cellulose. On the 8th day the animals were killed by etheral overnarcosis, the granulomes were removed, dried at 50° C for 5 hours, and then weighed. The animals belonging to the control group were treated similarly, but they received suspending agent only. The percentage efficiacy was calculated from the weight differences of the granuloma tissues observed for the treated and control groups. The significance was examined by the t test.

writhing syndrome = test: Writhing syndrome, comparison with Indomethacine (Table 7); assay type: in vivo, mouse; conditions: for Effect % average, writhing: male mice
Experimental: The tests were carried out on male mice each weighing 15 to 18 g., starved for 16 hours prior to treatment. 0.1 ml./10 g. body weight of 1% acetic acid solution was injected intraperitoneally to the animals. The sterile inflammation occurred on the action of acetic acid provoked a characteristic syndrome (writhing). The number of writhings was counted during an observation period of 20 minutes, starting 15 minutes after the administration of acetic acid. The substance to be tested was administered orally as a suspension, in a dosage of 0.1 ml./10 g. body weight 2 to 4 hours before the acetic acid injection. The average number of writhings observed for the treated animals was compared to that observed in the control group, and the percentage inhibition was calculated from the difference.

rats = test: Ulcerogeneous action on rats, comparison with Indomethacine (Table 3'); conditions: for Animals having lesions on the intestines / Survivals / Ulcer number: male rats, 5 days

**Q.** Which results are given for COc1ccc2c(c1)c(CC(=O)OCC(Cl)(Cl)Cl)c(C)n2C(=O)c1ccc(Cl)cc1 [Example 5, 1-(p-chlorobenzoyl)-2-methyl-5-methoxy-indol-3-yl-acetic-acid trichloroethyl ester]?
**A.** LD50 at 168 h ([1]; equivalent amounts of Indomethacine, read-out: LD50 as equivalent amount of Indomethacine): 1570 mg/kg; LD50 at 168 h ([1]; read-out: LD50): 2150 mg/kg; therapeutical width compared with Indomethacine (mice; considering the toxicity values): far more favorable than that of Indomethacine; Perished animals/treated animals (mice; oral 1367 (1000) mg./kg., 24 h): 0/10; Perished animals/treated animals (mice; oral 1367 (1000) mg./kg., 48 h): 0/10; Perished animals/treated animals (mice; oral 1367 (1000) mg./kg., 72 h): 0/10; Perished animals/treated animals (mice; oral 1367 (1000) mg./kg., 96 h): 0/10; Perished animals/treated animals (mice; oral 1367 (1000) mg./kg., 120 h): 0/10; Perished animals/treated animals (mice; oral 1367 (1000) mg./kg., 144 h): 0/10; Perished animals/treated animals (mice; oral 1367 (1000) mg./kg., 168 h): 0/10; Perished animals/treated animals (mice; oral 2050 (1500) mg./kg., 24 h): 0/10; Perished animals/treated animals (mice; oral 2050 (1500) mg./kg., 48 h): 0/10; Perished animals/treated animals (mice; oral 2050 (1500) mg./kg., 72 h): 0/10; Perished animals/treated animals (mice; oral 2050 (1500) mg./kg., 96 h): 0/10; Perished animals/treated animals (mice; oral 2050 (1500) mg./kg., 120 h): 0/10; Perished animals/treated animals (mice; oral 2050 (1500) mg./kg., 144 h): 0/10; Perished animals/treated animals (mice; oral 2050 (1500) mg./kg., 168 h): 1/10; Perished animals/treated animals (mice; oral 2734 (2000) mg./kg., 24 h): 0/10; Perished animals/treated animals (mice; oral 2734 (2000) mg./kg., 48 h): 0/10; Perished animals/treated animals (mice; oral 2734 (2000) mg./kg., 72 h): 2/10; Perished animals/treated animals (mice; oral 2734 (2000) mg./kg., 96 h): 2/10; Perished animals/treated animals (mice; oral 2734 (2000) mg./kg., 120 h): 4/10; Perished animals/treated animals (mice; oral 2734 (2000) mg./kg., 144 h): 6/10; Perished animals/treated animals (mice; oral 2734 (2000) mg./kg., 168 h): 6/10; Perished animals/treated animals (mice; oral 3417 (2500) mg./kg., 24 h): 0/10; Perished animals/treated animals (mice; oral 3417 (2500) mg./kg., 48 h): 1/10; Perished animals/treated animals (mice; oral 3417 (2500) mg./kg., 72 h): 1/10; Perished animals/treated animals (mice; oral 3417 (2500) mg./kg., 96 h): 3/10; Perished animals/treated animals (mice; oral 3417 (2500) mg./kg., 120 h): 4/10; Perished animals/treated animals (mice; oral 3417 (2500) mg./kg., 144 h): 6/10; Perished animals/treated animals (mice; oral 3417 (2500) mg./kg., 168 h): 7/10; Perished animals/treated animals (mice; oral 4101 (3000) mg./kg., 24 h): 0/10; Perished animals/treated animals (mice; oral 4101 (3000) mg./kg., 48 h): 1/10; Perished animals/treated animals (mice; oral 4101 (3000) mg./kg., 72 h): 3/10; Perished animals/treated animals (mice; oral 4101 (3000) mg./kg., 96 h): 4/10; Perished animals/treated animals (mice; oral 4101 (3000) mg./kg., 120 h): 5/10; Perished animals/treated animals (mice; oral 4101 (3000) mg./kg., 144 h): 7/10; Perished animals/treated animals (mice; oral 4101 (3000) mg./kg., 168 h): 7/10; Effect % (average), inhibition of kaoline oedema (kaoline oedema; p.o. 13.67 (10) mg./kg., 2 hours): 10.2%; Effect % (average), inhibition of kaoline oedema (kaoline oedema; p.o. 13.67 (10) mg./kg., 3.5 hours): 15.8%; Effect % (average), inhibition of kaoline oedema (kaoline oedema; p.o. 13.67 (10) mg./kg., 5 hours): 18.8%; Effect % (average), inhibition of kaoline oedema (kaoline oedema; p.o. 34.17 (25) mg./kg., 2 hours): 12.0%; Effect % (average), inhibition of kaoline oedema (kaoline oedema; p.o. 34.17 (25) mg./kg., 3.5 hours): 22.1%; Effect % (average), inhibition of kaoline oedema (kaoline oedema; p.o. 34.17 (25) mg./kg., 5 hours): 27.3%; Effect %, inhibition of kaoline oedema (kaoline oedema; p.o. 68.35 (50) mg./kg., 2 hours): 21.9%; Effect %, inhibition of kaoline oedema (kaoline oedema; p.o. 68.35 (50) mg./kg., 3.5 hours): 30.2%; Effect %, inhibition of kaoline oedema (kaoline oedema; p.o. 68.35 (50) mg./kg., 5 hours): 33.3%; Effect %, inhibition of kaoline oedema (kaoline oedema; p.o. 136.7 (100) mg./kg., 2 hours): 26.9%; Effect %, inhibition of kaoline oedema (kaoline oedema; p.o. 136.7 (100) mg./kg., 3.5 hours): 41.1%; Effect %, inhibition of kaoline oedema (kaoline oedema; p.o. 136.7 (100) mg./kg., 5 hours): 37.9%; dosage inhibiting oedema, times higher than Indomethacine (kaoline oedema; kaoline oedema, molar equivalents compared): about 2.5 times; antiphlogistic effect, times weaker than Indomethacine (kaoline oedema; summary of the comparison): about 2.5 times; dosage inhibiting oedema, times higher than Indomethacine (carrageenine oedema; carrageenine oedema, molar equivalents compared): about 2.5 times; Effect %, inhibition of carrageenine oedema (carrageenine oedema; p.o. 13.67 (10) mg./kg., 1.5 hours): 9.8%; Effect %, inhibition of carrageenine oedema (carrageenine oedema; p.o. 13.67 (10) mg./kg., 3 hours): 15.8%; Effect %, inhibition of carrageenine oedema (carrageenine oedema; p.o. 13.67 (10) mg./kg., 4.5 hours): 16.0%; Effect %, inhibition of carrageenine oedema (carrageenine oedema; p.o. 34.17 (25) mg./kg., 1.5 hours): 10.8%; Effect %, inhibition of carrageenine oedema (carrageenine oedema; p.o. 34.17 (25) mg./kg., 3 hours): 18.3%; Effect %, inhibition of carrageenine oedema (carrageenine oedema; p.o. 34.17 (25) mg./kg., 4.5 hours): 21.9%; Effect %, inhibition of carrageenine oedema (carrageenine oedema; p.o. 68.35 (50) mg./kg., 1.5 hours): 14.8%; Effect %, inhibition of carrageenine oedema (carrageenine oedema; p.o. 68.35 (50) mg./kg., 3 hours): 19.9%; Effect %, inhibition of carrageenine oedema (carrageenine oedema; p.o. 68.35 (50) mg./kg., 4.5 hours): 28.5%; effect on cotton granuloma compared with Indomethacine (cotton granuloma; even when added in a twofold dosage): lower than that of Indomethacine; Effect %, cotton granuloma (cotton granuloma; oral daily 5.5 (4) mg./kg., p 0.01): 19.5%; Effect %, cotton granuloma (cotton granuloma; oral daily 11 (8) mg./kg., p 0.001): 24.8%; Effect % average, writhing (writhing syndrome; p.o. 6.8 (5) mg./kg., 2 hours): 24.8%; Effect % average, writhing (writhing syndrome; p.o. 6.8 (5) mg./kg., 4 hours): 19.3%; Effect % average, writhing (writhing syndrome; p.o. 17.1 (12.5) mg./kg., 2 hours): 56.1%; Effect % average, writhing (writhing syndrome; p.o. 17.1 (12.5) mg./kg., 4 hours): 53.5%; dosage provoking the same analgesic effect, times higher than Indomethacine (writhing syndrome; writhing, ratio refers to molar equivalents): 2.5 times; Animals having lesions on the intestines (rats; oral 27.3 (20) mg./kg.): 10.5%; Survivals (rats; oral 27.3 (20) mg./kg.): 19; Ulcer number (rats; oral 27.3 (20) mg./kg.): 0; Animals having lesions on the intestines (rats; oral 54.7 (40) mg./kg.): 80%; Survivals (rats; oral 54.7 (40) mg./kg.): 15; Ulcer number (rats; oral 54.7 (40) mg./kg.): 0.27; frequency of occurrence of intestinal lesions compared with Indomethacine (rats; rats, oral, fivefold dosage): doubled; lesions on intestines compared with Indomethacine (rats; rats, oral, fivefold dosage): far more severe; extent of perishment, lower than that caused by Indomethacine 8 mg./kg. (rats; rats, oral, fivefold dosage with respect to Indomethacine (8 mg./kg.)): 50%; lesions on the mucous membrane of the stomach (rats; rats, oral, Indomethacine 4 and 8 mg./kg., […]): slightly more severe lesions
